Experiments:
[1] = target: T1, ICAM-1 binding to immobilized Mac-1 (Homo sapiens, UniProt P05107+P11215); assay: Mac-1/ICAM-1 screening assay (solid-phase ELISA); details: read-out: Mac-1/ICAM-1 Protein-Protein Assay IC50
T1 construct: made in house; host or cells: transfected 293 cells (Mac-1)
Procedure, shortened: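 Competitive solid-phase ELISA: membrane Mac-1 from transfected 293 cells coated at 3 μg/mL in 20 mM Hepes pH 7.2/0.14 M NaCl/1 mM MnCl2; compounds (0.12 nM-20 μM, 1:4 series) plus 5dICAM-Ig (40 μg/mL, added) 2 h at 37° C. Bound ICAM-Ig detected with HRP anti-human IgG Fc, TMB, A450; IC50 reported.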

[2] = system: cell-surface Mac-1 adhesion to immobilized fibrinogen (HL-60 cells); assay: Mac-1/Fibrinogen cell-based screening assay; parameters: species or system human; details: Homo sapiens, HL-60, HL-60 cells; read-out: Mac-1/Fgn Cell based Assay IC50
Procedure: Cellular Mac-1/Fibrinogen antagonist activity, defined as the ability to inhibit cell-surface Mac-1 adhesion to immobilized fibrinogen, was quantitated by a cell based assay. Human fibrinogen was coated onto 96 well microtiter plates (1 μg in 100 μL TBS) overnight at 4° C. The plates were then blocked with 150 μL of 10% polyvinyl pyrrolidone (PVP) in TBS for 1 h at 37° C. Plates were washed 3 times (150 μL each) with TBS. […] A ten-fold excess of volume of the same buffer was added and cells were centrifuged. The medium was decanted and cells were resuspended at a concentration of 2×10^6 cells/mL in RPMI/0.05% BSA/0.2 mM MnCl2. Stock solutions (10 mM in DMSO) of test compounds were diluted to 2.5 mM with DMSO. […] Each sample was further diluted 50-fold with RPMI/0.05% BSA/0.2 mM MnCl2. Equal volumes of labeled cells were then added to assay tubes containing diluted compounds. […] Cells were incubated for 10 min at 37° C. with gentle shaking, then dispensed (100 μL per well) onto fibrinogen coated plates and incubated for 30 min at 37° C./5% CO2. Unbound cells were gently washed with TBS two times.

T1 sequence (P05107 23-769, other chains not shown): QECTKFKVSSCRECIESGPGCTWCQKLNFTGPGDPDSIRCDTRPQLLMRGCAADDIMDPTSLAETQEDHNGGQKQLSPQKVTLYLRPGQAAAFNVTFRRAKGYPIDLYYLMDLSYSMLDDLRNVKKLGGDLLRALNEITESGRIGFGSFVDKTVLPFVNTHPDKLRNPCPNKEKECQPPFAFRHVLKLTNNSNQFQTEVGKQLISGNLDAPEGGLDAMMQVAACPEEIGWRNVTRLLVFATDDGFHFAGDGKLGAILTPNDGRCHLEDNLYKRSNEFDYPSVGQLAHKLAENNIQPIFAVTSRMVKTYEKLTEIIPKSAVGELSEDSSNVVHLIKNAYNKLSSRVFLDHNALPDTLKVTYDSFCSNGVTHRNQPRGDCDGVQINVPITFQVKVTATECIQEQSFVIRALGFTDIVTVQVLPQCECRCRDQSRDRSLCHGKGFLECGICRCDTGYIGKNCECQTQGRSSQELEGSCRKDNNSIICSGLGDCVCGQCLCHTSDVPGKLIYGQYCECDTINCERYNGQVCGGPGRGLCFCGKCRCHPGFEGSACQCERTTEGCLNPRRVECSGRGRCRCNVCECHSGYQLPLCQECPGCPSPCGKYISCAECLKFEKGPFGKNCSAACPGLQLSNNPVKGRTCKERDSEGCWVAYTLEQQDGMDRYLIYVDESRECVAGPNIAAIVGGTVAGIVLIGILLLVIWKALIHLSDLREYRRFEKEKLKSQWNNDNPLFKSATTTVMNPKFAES

| IC50 [1] | IC50 [2] | SMILES |
| --- | --- | --- |
| 29 nM | 711 nM | O=C(CSc1ccncc1)NC[C@H](NC(=O)c1ccc(C(=O)NCc2cccc(O)c2)cc1Cl)C(=O)O [Example 90] |
| 23 nM | 345 nM | O=C(NCc1cccc(O)c1)c1ccc(C(=O)N[C@@H](CNC(=O)c2cc3ccccc3s2)C(=O)O)c(Cl)c1 [Example 175] |
| 19 nM | 157 nM | O=C(NCc1cccc(O)c1)c1ccc(C(=O)N[C@@H](CNC(=O)c2ccc3ncsc3c2)C(=O)O)c(Cl)c1 [Example 177] |
| 19 nM | 125 nM | O=C(NCc1cccc(O)c1)c1ccc(C(=O)N[C@@H](CNC(=O)c2cccc3ccccc23)C(=O)O)c(Cl)c1 [Example 178] |
| 31 nM | 314 nM | O=C(NCc1cccc(O)c1)c1ccc(C(=O)N[C@@H](CNC(=O)c2ccc3ccccc3c2)C(=O)O)c(Cl)c1 [Example 179] |
| 417 nM | 4850 nM | O=C(NCc1cccc(O)c1)c1ccc(C(=O)N[C@@H](CNC(=O)c2c3c(nc4ccccc24)CCCC3)C(=O)O)c(Cl)c1 [Example 190] |
| 16 nM | 63 nM | O=C(NCc1cccc(O)c1)c1ccc(C(=O)N[C@@H](CNC(=O)[C@@H]2CCCN2)C(=O)O)c(Cl)c1 [Example 196] |
| 6.8 nM | 19 nM | O=C(NCc1cccc(O)c1)c1ccc(C(=O)N[C@@H](CNC(=O)c2cc(F)cc(F)c2)C(=O)O)c(Cl)c1 [Example 252, N-[2-chloro-4-[[[(3-hydroxyphenyl)methyl]amino]carbonyl]benzoyl]-3-(3,5-difluorobenzoyl)amino-L-alanine] |
| 11 nM | 31 nM | O=C(NCc1cccc(O)c1)c1ccc(C(=O)N[C@@H](CNC(=O)c2csnn2)C(=O)O)c(Cl)c1 [Example 254] |
| 14 nM | 24 nM | O=C(NCc1cccc(O)c1)c1ccc(C(=O)N[C@@H](CNC(=O)c2ccno2)C(=O)O)c(Cl)c1 [Example 256] |
| 23 nM | 87 nM | COc1cscc1C(=O)NC[C@H](NC(=O)c1ccc(C(=O)NCc2cccc(O)c2)cc1Cl)C(=O)O [Example 257] |
|  | 63 nM | O=C(NCc1cccc(O)c1)c1ccc(C(=O)N[C@@H](CNC(=O)c2ccoc2)C(=O)O)c(Cl)c1 [Example 259, N-[2-chloro-4-[[[(3-hydroxyphenyl)methyl]amino]carbonyl]benzoyl]-3-(furan-3-carbonyl)amino-L-alanine] |
| 11 nM | 46 nM | NCCCC(=O)NC[C@H](NC(=O)c1ccc(C(=O)NCc2cccc(O)c2)cc1Cl)C(=O)O [Example 261, N-[2-chloro-4-[[[(3-hydroxyphenyl)methyl]amino]-carbonyl]benzoyl]-3-(4-aminobutanoylamino)-L-alanine] |
| 15 nM | 49 nM | O=C(NCc1cccc(O)c1)c1ccc(C(=O)N[C@@H](CNC(=O)C2CCNCC2)C(=O)O)c(Cl)c1 [Example 262] |
| 31 nM | 74 nM | O=C(NCc1cccc(O)c1)c1ccc(C(=O)N[C@@H](CNC(=O)c2ccccc2)C(=O)O)c(Cl)c1 [Example 302, 3-benzoylamino-N-[2-chloro-4-[[[(3-hydroxyphenyl)methyl]amino]carbonyl]benzoyl]-L-alanine] |
| 6.4 nM | 8.7 nM | O=C(NCc1cccc(O)c1)c1ccc(C(=O)N[C@@H](CNC(=O)c2cccs2)C(=O)O)c(Cl)c1 [Example 303, N-[2-chloro-4-[[[(3-hydroxyphenyl)methyl]amino]carbonyl]benzoyl]-3-(thiophene-2-carbonyl)amino-L-alanine] |
| 40 nM | 162 nM | O=C(NCc1cccc2[nH]ccc12)c1ccc(C(=O)N[C@@H](CNC(=O)c2ccccc2)C(=O)O)c(Cl)c1 [Example 314, 3-(benzoylamino)-N-[2-chloro-4-[[(1H-indol-4-ylmethyl)amino]carbonyl]benzoyl]-L-alanine] |

| IC50 [1] | IC50 [2] | SMILES |
| --- | --- | --- |
| 51 nM |  | O=C(NCc1cccc2[nH]cnc12)c1ccc(C(=O)N[C@@H](CNC(=O)c2cccs2)C(=O)O)c(Cl)c1 [Example 322] |
|  | 26 nM | Cc1cc(C(=O)NCc2cccc(O)c2)ccc1C(=O)N[C@@H](CNC(=O)c1cccs1)C(=O)O [Example 323] |
|  | 18 nM | O=C(NCc1cccc2[nH]ncc12)c1ccc(C(=O)N[C@@H](CNC(=O)c2cccs2)C(=O)O)c(Cl)c1 [Example 327, N-[2-chloro-4-[[[(1H-indazol-4-yl)methyl]amino]carbonyl]benzoyl]-3-(thiophene-2-carbonyl)amino-L-alanine] |
| 25 nM |  | O=C(NCc1cccc2[nH]ccc12)c1ccc(C(=O)N[C@@H](CNC(=O)c2cccs2)C(=O)O)c(Br)c1 [Example 329] |
|  | 6 nM | Cc1cc(C(=O)NCc2cccc(O)c2)cc(C)c1C(=O)N[C@@H](CNC(=O)c1cccs1)C(=O)O [Example 330] |
| 68 nM |  | C[C@@H](NC(=O)c1ccc(C(=O)N[C@@H](CNC(=O)c2cccs2)C(=O)O)c(Br)c1)c1cccc2ccccc12 [Example 332] |
|  | 12 nM | Cc1cc(C(=O)N[C@H](C)c2cccc3ccccc23)cc(C)c1C(=O)N[C@@H](CNC(=O)c1cccs1)C(=O)O [Example 333] |
| 71 nM |  | Nc1cccc(CNC(=O)c2ccc(C(=O)N[C@@H](CNC(=O)c3cccs3)C(=O)O)c(Br)c2)c1 [Example 334, N-[4-[[[(3-aminophenyl)methyl]amino]carbonyl]-2-bromobenzoyl]-3-(thiophene-2-carbonyl)amino-L-alanine] |
|  | 5.4 nM | Cc1cc(C(=O)NCc2cccc(O)c2)cc(C)c1C(=O)N[C@@H](CNC(=O)c1ccsc1)C(=O)O [Example 336, N-[2,6-dimethyl-4-[[[(3-hydroxyphenyl)methyl]amino]carbonyl]benzoyl]-3-(thiophene-3-carbonyl)amino-L-alanine] |
|  | 12 nM | Cc1cc(C(=O)NCc2cccc(O)c2)cc(C)c1C(=O)N[C@@H](CNC(=O)c1cc(F)cc(F)c1)C(=O)O [Example 337, N-[2,6-dimethyl-4-[[[(3-hydroxyphenyl)methyl]amino]carbonyl]benzoyl]-3-(3,5-difluorobenzoylamino)-L-alanine] |
| 21 nM | 2.2 nM | Cc1cc(C(=O)NCc2cccc(O)c2)cc(Cl)c1C(=O)N[C@@H](CNC(=O)c1cccs1)C(=O)O [Example 338, N-[2-chloro-4-[[[(3-hydroxyphenyl)methyl]amino]carbonyl]-6-methylbenzoyl]-3-[(thiophene-2-carbonyl)amino]-L-alanine] |
|  | 3.1 nM | Cc1cc(C(=O)NCc2cccc(O)c2)cc(Cl)c1C(=O)N[C@@H](CNC(=O)c1ccsc1)C(=O)O [Example 339, N-[2-chloro-4-[[[(3-hydroxyphenyl)methyl]amino]carbonyl]-6-methylbenzoyl]-3-[(thiophene-3-carbonyl)amino]-L-alanine] |
|  | 6.2 nM | Cc1cc(C(=O)NCc2cccc(O)c2)cc(Cl)c1C(=O)N[C@@H](CNC(=O)c1cc(F)cc(F)c1)C(=O)O [Example 340, N-[2-chloro-4-[[[(3-hydroxyphenyl)methyl]amino]carbonyl]-6-methylbenzoyl]-3-[(3,5-difluorobenzoyl)amino]-L-alanine] |
|  | 1 nM | O=C(NCc1cccc(O)c1)c1cc(Cl)c(C(=O)N[C@@H](CNC(=O)c2cccs2)C(=O)O)c(Cl)c1 [Example 342, N-[2,6-dichloro-4-[[[(3-hydroxyphenyl)methyl]amino]carbonyl]benzoyl]-3-[(thiophene-2-carbonyl)amino]-L-alanine] |
|  | 1.7 nM | O=C(NCc1cccc(O)c1)c1cc(Cl)c(C(=O)N[C@@H](CNC(=O)c2ccsc2)C(=O)O)c(Cl)c1 [Example 343, N-[2,6-dichloro-4-[[[(3-hydroxyphenyl)methyl]amino]carbonyl]benzoyl]-3-[(thiophene-3-carbonyl)amino]-L-alanine] |
|  | 4.8 nM | O=C(NCc1cccc(O)c1)c1cc(Cl)c(C(=O)N[C@@H](CNC(=O)c2cc(F)cc(F)c2)C(=O)O)c(Cl)c1 [Example 344, N-[2,6-dichloro-4-[[[(3-hydroxyphenyl)methyl]amino]carbonyl]benzoyl]-3-[(3,5-difluorobenzoyl)amino]-L-alanine] |
|  | 0.3 nM | O=C(NCc1cccc(O)c1)c1cc(Cl)c(C(=O)N[C@@H](CNC(=O)c2cc(O)cc(O)c2)C(=O)O)c(Cl)c1 [Example 345, N-[2,6-dichloro-4-[[[(3-hydroxyphenyl)methyl]amino]carbonyl]benzoyl]-3-(3,5-dihydroxybenzoylamino)-L-alanine] |
